Active and inactive are the calls of the source.
Legend:
[1] = viability loss in HEK293 kidney cells – cell-based, cherry-picks, set 5, cytotoxicity control, dose response (AID 1053117); type: functional
[2] = HGIII-sPLA2 enzyme inhibition potency – biochemical, QFRET, IC50, dose response (AID 743457);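 note: green fluorescence rise as the enzyme cleaves BODIPY PC-A2 in liposomes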
fMet-Leu-Phe receptor = fMet-Leu-Phe receptor (Homo sapiens, UniProt P21462); test: formyl peptide receptor binders – dose response (AID 519); type: functional
[3] = Counterscreen for inhibitors of Trypanosoma brucei methionyl tRNA synthetase (MetRS): Luminescence-based cell-based high throughput dose response assay to identify compounds that are cytotoxic to Jurkat human T lymphocyte cells.; type: functional
[4] = Trypanosoma cruzi growth suppression in host cells – NIH3T3 host cells, beta-gal luminescence, confirmation (AID 2044); type: functional, cell-based;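 note: intracellular parasites grown in NIH/3T3 mouse fibroblasts as host cells; luminescent beta-galactosidase reporter signal from transgenic T. cruzi replicating inside host cells; inhibitors lower the luminescence signal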
[5] = target: T1, Methionyl-tRNA synthetase, putative (Trypanosoma brucei brucei, UniProt Q38C91); type: functional, Trypanosoma brucei brucei strain 927/4 GUTat10.1
T1 sequence (Q38C91 whole entry): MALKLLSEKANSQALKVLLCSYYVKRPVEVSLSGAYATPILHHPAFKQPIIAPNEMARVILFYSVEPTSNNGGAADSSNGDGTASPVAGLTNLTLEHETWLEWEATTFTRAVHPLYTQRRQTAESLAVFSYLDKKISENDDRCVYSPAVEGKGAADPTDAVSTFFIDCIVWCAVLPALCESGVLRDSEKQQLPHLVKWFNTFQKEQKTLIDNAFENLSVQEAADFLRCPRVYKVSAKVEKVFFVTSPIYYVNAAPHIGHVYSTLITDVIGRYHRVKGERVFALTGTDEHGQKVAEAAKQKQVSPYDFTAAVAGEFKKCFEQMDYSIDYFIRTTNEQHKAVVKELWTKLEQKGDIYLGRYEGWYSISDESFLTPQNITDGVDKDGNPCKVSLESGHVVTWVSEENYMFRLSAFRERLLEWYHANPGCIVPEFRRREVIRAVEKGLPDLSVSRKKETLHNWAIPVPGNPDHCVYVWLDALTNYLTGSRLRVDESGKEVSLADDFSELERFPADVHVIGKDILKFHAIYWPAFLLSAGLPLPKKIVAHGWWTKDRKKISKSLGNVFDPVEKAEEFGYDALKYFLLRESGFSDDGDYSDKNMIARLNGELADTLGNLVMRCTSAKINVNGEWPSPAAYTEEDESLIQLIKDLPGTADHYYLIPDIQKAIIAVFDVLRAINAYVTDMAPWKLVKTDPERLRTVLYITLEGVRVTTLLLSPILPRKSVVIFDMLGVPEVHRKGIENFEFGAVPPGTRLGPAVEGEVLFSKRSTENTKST

[6] = potency of ADAM10 substrate cleavage blockers – biochemical, QFRET, dose response (AID 743254);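 note: ADAM10 enzyme with the DM2 quenched FRET peptide as substrate; EDANS fluorescence gain as the protease cuts the substrate; inhibitor potency against ADAM10 proteolytic activity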
[7] = target: T1, Methionyl-tRNA synthetase, putative; type: functional, Trypanosoma brucei brucei strain 927/4 GUTat10.1; remark: listed apart in the source
[8] = NIH3T3 cell viability loss – ATP luminescence, mouse fibroblasts, counter-screen, dose response (AID 2010); type: functional, cell-based;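 note: cells exposed to compound for about 90 hours before reading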
[9] = target: Disintegrin and metalloproteinase domain-containing protein 17 (Homo sapiens, UniProt P78536); test: inhibition of ADAM17 substrate cleavage – biochemical, quenched FRET substrate, counter-screen for ADAM10 exosite inhibitor project, dose response (AID 743253)
BJ = test: growth inhibition of engineered Ras-driven BJ cells – cell-based, alamar blue fluorescence, cherrypicked samples, dose response (AID 2631); type: functional; conditions: Homo sapiens;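 note: confirmatory dose-response assay in RAS-dependent BJ fibroblasts engineered with TERT, LT and ST, with cytotoxicity read by fluorescence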
[10] = viability loss in human hepatoma cells – cell-based, CellTiter-Glo luminescence, cherry-pick, set 2, cytotoxicity control, dose response (AID 743395); type: functional
Paired box protein Pax-8 = Paired box protein Pax-8 (Homo sapiens, UniProt Q06710); test: PAX8 transcriptional activity inhibition in RMG-I – RMG-I cells, luciferase, cherry-pick, dose response (AID 687027); type: functional, cell-based;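 note: luciferase reporter driven by Pax8 target thyroperoxidase promoter measured by SteadyGlo luminescence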
Major prion protein = Major prion protein (Homo sapiens, UniProt P04156); type: functional, cell-based
Hexokinase-1 = target: T2, Hexokinase-1 (Homo sapiens, UniProt P19367); test: SAR analysis of small molecule inhibitors of hexokinase domain containing I (HKDC1) in the hexokinase 1 selectivity assay. [Related pubchem assays (depositor defined):AID493160, AID493190]; type: functional
T2 sequence (P19367 whole entry): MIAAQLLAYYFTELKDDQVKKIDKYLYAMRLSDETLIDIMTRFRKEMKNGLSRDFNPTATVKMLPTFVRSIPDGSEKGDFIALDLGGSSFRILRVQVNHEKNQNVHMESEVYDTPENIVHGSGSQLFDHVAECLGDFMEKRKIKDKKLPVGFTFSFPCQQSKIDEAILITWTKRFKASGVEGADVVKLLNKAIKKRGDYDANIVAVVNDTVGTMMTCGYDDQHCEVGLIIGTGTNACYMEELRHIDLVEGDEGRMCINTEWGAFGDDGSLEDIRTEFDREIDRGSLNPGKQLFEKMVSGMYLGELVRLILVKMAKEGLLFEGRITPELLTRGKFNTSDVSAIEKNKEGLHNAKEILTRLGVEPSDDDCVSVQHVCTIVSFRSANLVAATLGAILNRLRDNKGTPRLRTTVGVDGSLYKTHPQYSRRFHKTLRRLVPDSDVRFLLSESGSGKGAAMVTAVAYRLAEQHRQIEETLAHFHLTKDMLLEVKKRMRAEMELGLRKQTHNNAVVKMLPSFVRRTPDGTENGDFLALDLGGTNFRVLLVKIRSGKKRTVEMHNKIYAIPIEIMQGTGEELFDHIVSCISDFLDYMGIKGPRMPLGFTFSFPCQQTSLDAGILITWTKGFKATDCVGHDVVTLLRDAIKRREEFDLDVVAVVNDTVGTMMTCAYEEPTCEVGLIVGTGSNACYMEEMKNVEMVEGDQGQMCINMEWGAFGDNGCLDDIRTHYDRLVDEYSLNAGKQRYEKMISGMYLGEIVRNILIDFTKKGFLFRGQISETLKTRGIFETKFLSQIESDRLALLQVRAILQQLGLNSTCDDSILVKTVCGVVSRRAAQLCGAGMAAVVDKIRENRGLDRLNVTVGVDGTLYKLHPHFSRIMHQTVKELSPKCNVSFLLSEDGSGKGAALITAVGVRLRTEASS

[11] = viability of BHK-21 cells – cell-based, secondary screen, cytotoxicity control for flavivirus guanylyltransferase probe project (AID 624078); type: functional
Hexokinase HKDC1 = target: T3, Hexokinase HKDC1 (Homo sapiens, UniProt Q2TB90); test: SAR analysis of small molecule inhibitors of hexokinase domain containing I (HKDC1). [Related pubchem assays (depositor defined):AID493160, AID493190]; type: functional
T3 sequence (Q2TB90 whole entry): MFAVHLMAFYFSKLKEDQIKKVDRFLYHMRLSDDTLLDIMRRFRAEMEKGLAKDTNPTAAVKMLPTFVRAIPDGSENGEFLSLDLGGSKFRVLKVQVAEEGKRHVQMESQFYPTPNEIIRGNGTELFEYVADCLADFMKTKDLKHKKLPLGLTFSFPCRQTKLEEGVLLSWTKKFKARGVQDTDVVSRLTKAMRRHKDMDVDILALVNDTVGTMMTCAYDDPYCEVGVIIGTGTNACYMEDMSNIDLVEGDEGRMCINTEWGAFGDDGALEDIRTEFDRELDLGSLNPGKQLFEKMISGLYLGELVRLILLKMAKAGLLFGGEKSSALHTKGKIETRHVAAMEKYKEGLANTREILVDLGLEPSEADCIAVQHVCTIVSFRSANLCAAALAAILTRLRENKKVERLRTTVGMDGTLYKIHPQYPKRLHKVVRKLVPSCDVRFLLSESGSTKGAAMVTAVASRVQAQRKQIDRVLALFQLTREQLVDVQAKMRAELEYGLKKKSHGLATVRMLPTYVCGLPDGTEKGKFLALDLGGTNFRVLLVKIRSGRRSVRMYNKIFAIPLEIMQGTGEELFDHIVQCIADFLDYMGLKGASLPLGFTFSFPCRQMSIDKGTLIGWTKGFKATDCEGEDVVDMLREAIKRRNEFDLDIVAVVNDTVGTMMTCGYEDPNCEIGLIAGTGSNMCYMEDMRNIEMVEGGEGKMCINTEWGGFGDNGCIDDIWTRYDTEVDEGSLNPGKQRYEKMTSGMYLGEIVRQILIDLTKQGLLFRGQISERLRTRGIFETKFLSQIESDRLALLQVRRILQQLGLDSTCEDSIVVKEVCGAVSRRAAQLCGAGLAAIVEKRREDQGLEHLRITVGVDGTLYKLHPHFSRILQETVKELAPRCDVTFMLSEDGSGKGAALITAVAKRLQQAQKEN

[12] = general mammalian cell viability loss – activator set, cherry-pick, cytotoxicity control for miR-122 modulator project, dose response (AID 720690); type: functional, cell-based;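 note: HEK293T human cells scored for general mammalian cytotoxicity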

## Cc1cccc(NC(=O)c2ccc(S(=O)(=O)N3CCCCC3)cc2)n1
[1]
  AC50: > 52 µM (inactive)

## CCCCN=C(S)NNC(=O)c1csc(C)c1C
[2]
  IC50: > 122 µM (inactive)

## CCC(Sc1nc2c(c(=O)[nH]1)CCC2)C(=O)Nc1cccc(OC)c1 (centres undefined)
fMet-Leu-Phe receptor
  Ki: 35.5 µM (inactive)

## COc1ccccc1NS(=O)(=O)c1cccc(NC(=O)Nc2cccc(Cl)c2)c1
[3]
  IC50: 41.1 µM (inactive)
[4]
  EC50: 2.16 µM (active)
[5]
  IC50: 15.7 µM (inactive)
[6]
  IC50: 12 µM (inactive)
[7]
  IC50: 12 µM (inactive)
[8]
  EC50: > 60 µM (not active)
[9]
  IC50: > 69.5 µM (inactive)

## COc1ccc(C(=O)c2cc([N+](=O)[O-])ccc2N2CCOCC2)cc1
BJ
  EC50: < 0.104 µM (active)
[10]
  AbsAC35_uM: 60.09 µM
Paired box protein Pax-8
  AC50: 3.21 µM (active)

## Cc1cc(NC(=O)CCC(=O)N(c2ccccc2)C(C(=O)NC2CCCC2)c2cccs2)no1 (centres undefined)
Major prion protein
  IC50: 16.2 µM (inactive)
cells
  IC50: > 138 µM (inactive)

## Cc1ccc(S(=O)(=O)Nc2cc(SCC(=O)O)c(O)c3ccccc23)cc1
Hexokinase-1
  IC50: 50.6 µM (inactive)
[11]
  CC50: 9.31 µM (active)
Hexokinase HKDC1
  IC50: 5.44 µM (active)

## CN[C@H]1C[C@H]2c3[nH]c4ccc(-c5ccc(OC)cc5)cc4c3CCN2C(=O)[C@H]1[C@H](C)O
[12]
  AC50: 15.8 µM (active)

Source: ChEMBL document CHEMBL1201862, “PubChem BioAssay data set” (2004)
